Consider 14 compounds from patent publication US7713935B2, “Compounds that modulate TRH actions” (The Provost, Fellows and Scholars of The College of The …, priority 2004, dated 2010).

Assay [1] concerns native rat cortical TRH receptors. The note with it: cited from earlier work; for Affinity compared to TRH for [3H]-3MeHis-TRH-labelled receptors in rat cortical membranes: previous studies (Kelly et al., 2002).
Assay [2] concerns the target T1, TRH-DE purified from porcine brain (Sus scrofa, UniProt A0A287AP33).
T1 construct: TRH-DE purified from porcine brain; from tissue; host or cells: porcine brain
The assay is described as follows: Inhibition of purified TRH-DE (kinetic/fluorometric assays). The format is biochemical. The note with it: read-out: Ki values for TRH-DE inhibitors. From the text: The binding capacity offered by in the vicinity of the S2′ binding site of TRH-DE was studied. […] The L-amino acids in these peptides were replaced with D-amino acids. The vast majority of naturally occurring polypeptides are composed of L-amino acids and mammalian proteolytic enzymes are designed to work with this stereochemistry. Thus, replacement of L-amino acids by D-amino acids is used in the art in an endeavor to confer stability to proteolytic degradation as described in U.S. Pat. No. 6,703,366. It is recognized by the art that this type of replacement, however, may lead to loss of peptide specificity and or activity as noted by U.S. Pat. No. 4,587,233, Sato et al. 1987 and Fischer 2003, and thus the effect of the replacement is unpredictable. […] Replacement of L-amino acids by D-amino acids may also be used to scan the relative importance of the stereochemistry of particular functional groups in a peptide structure and also that of local structures within the peptide (Hruby, 2002).
The ability of compounds to be hydrolysed by and to inhibit TRH-DE purified from porcine brain was determined using kinetic assays as previously described (Kelly et al. 1999, 2000a, 2000b, U.S. Pat. application 20030166944). […] [JAK 1, JAK 2, JAK 3, JAK 4 and JAK 5 are described in U.S. Pat. App. No. 20030166944.]
HPLC analysis was used, as previously described (Kelly et al. 2000a, U.S. Pat. App. 20030166944), to assess the ability of each compound listed above to act as a TRH-DE substrate. […] Compounds were then screened for their ability to inhibit TRH-DE purified from porcine brain using fluorometric assays, as previously described (Kelly et al. 2000a, U.S. Pat. App. 20030166944).

The subject of assay [3] is Male Wistar rats. The settings on record: Kelly et al., 2000b; cited from earlier work.
For assay [4], the target named is native rat cortical TRH receptors. The assay can be described thus: TRH receptor binding: displacement of [3H][3-Me-His2]TRH from rat cortical membranes. The settings on record: for Affinity for [3H]-3MeHis-TRH-labelled receptors compared with 3MeHis-TRH: rat brain cortex; for Affinity for [3H]-3MeHis-TRH-labelled receptors in rat brain cortex: result in words. The procedure:
It cannot be ruled out, however, that [^3H][3-Me-His^2]TRH is binding to a TRH receptor subtype in rat brain cortex that has yet to be identified.
Radioligand binding assays were carried out to examine the ability of these TRH-DE inhibitors to bind to TRH receptors. This was achieved by measuring the ability of the inhibitors to displace [^3H][3-Me-His^2]TRH binding to rat cortical membranes. Membranes were prepared from the cortex of male Wistar rats. The binding of [^3H]-3MeHis-TRH to TRH receptors in cortical membranes was measured as described previously (Kelly et al., 2002) using 10 mM TRH to define non-specific binding. The affinity of TRH-DE inhibitors for TRH receptors was determined in competition experiments and data were analyzed using GraphPad Prism. […] The rank order of potency of D isomer inhibitors was JAK4-D>JAK2-D>JAK1-D.

Assay [5] has as its system Male Wistar rats. The assay can be described thus: Rat behaviour total activity score. The format is in vivo. The method, then: These include, increased locomotor activity (21-22), induction of blinking and forepaw licking and body shaking behavior, often referred to as 'wet dog shakes' (WDS) Kelly et al., 2000b). […] Male Wistar rats (150-250 g) were placed in individual perspex boxes and allowed to acclimatize for 20 min. […] Individual behaviors were recorded for 30 sec at 5 min intervals by an observer who was blind to treatment. Behaviors during each observation period were summed to yield a total activity score.

Assay [6] concerns Male Wistar rats. The assay can be described thus: Antagonism of barbiturate-induced sleep time (analeptic effect). The format is in vivo, rat. The note with it: 1 mg/kg i.v.; for Sleep time: 10 min after sodium pentobarbitone 30 mg/kg i.p., mean ± SEM; for Effect on barbiturate-induced sleep time: result in words. The procedure:
The antagonism of barbiturate-induced anesthesia is a well-recognized pharmacological effect of TRH and is used in the art to indicate successful central delivery and activity of TRH analogues. […] Male Wistar rats (150-250 g) were anaesthetized with sodium pentobarbitone (30 mg/kg i.p.). […] Animals were placed on their backs and sleep times recorded. From Table III it can be seen that both […] [table]

For assay [7], the system named is Male Wistar rats. The assay can be described thus: Wet dog shaking (WDS) behavior. It counts as in vivo, rat.
Where [8] appears, read: D isomer, JAK compounds dissolved in DMSO, read-out: Ki, inhibition of [3H]-3MeHis-TRH binding, X is D isomer aa.
Where [9] appears, read: L isomer, JAK compounds dissolved in DMSO, read-out: Ki, inhibition of [3H]-3MeHis-TRH binding, X is L isomer aa.

Where two headings read alike, the source gives them in different places. Square brackets hold non-standard residues; d marks the D form. Peptide text beside a SMILES is read from it. * marks the point of attachment. AMC = Cc1cc(=O)oc2cc(N*)ccc12; pGlu = O=C1CC[C@@H](C(=O)O)N1

T1 sequence (A0A287AP33 1-1066): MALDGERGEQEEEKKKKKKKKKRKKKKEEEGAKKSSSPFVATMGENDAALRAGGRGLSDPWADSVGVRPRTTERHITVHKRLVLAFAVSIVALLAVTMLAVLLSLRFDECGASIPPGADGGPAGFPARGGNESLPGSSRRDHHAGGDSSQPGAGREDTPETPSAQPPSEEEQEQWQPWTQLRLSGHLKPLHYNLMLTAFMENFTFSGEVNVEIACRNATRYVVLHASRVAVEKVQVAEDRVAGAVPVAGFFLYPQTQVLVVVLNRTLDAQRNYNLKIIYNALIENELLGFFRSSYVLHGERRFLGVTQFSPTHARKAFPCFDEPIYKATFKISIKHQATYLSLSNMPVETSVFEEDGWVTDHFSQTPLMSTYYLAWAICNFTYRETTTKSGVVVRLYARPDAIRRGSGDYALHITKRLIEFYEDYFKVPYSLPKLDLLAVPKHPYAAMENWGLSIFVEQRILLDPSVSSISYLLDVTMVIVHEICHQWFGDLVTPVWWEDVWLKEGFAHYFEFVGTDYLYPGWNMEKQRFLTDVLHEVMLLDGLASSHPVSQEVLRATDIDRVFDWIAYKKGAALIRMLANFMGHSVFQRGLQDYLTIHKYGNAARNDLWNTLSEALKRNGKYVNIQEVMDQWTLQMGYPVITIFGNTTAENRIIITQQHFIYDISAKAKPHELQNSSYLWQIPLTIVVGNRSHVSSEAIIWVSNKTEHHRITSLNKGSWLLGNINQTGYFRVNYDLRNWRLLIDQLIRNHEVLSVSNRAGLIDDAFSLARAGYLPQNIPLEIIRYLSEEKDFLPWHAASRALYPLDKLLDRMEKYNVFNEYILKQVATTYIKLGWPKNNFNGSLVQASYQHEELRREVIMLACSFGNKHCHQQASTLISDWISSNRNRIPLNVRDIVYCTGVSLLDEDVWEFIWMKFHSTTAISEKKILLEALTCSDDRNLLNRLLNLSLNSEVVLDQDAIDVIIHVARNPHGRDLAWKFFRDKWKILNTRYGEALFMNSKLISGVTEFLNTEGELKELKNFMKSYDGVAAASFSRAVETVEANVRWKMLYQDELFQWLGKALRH

For `NC(=O)C[C@H](NC(=O)[C@@H]1CCC(=O)N1)C(=O)N1CCC[C@H]1C(N)=O` [JAK 6, Glp-Asn-ProNH2] ([pGlu]-Asn-Pro-NH2), the “Affinity compared to TRH for [3H]-3MeHis-TRH-labelled receptors in rat cortical membranes” value in assay [1] is on record as “relatively low affinity”. In assay [2], the Ki – broadly, the dissociation constant of the complex between target and ligand, obtained from inhibition or displacement – stood at 16100 nM.

Regarding `Cc1cc(=O)oc2cc(NC(=O)[C@@H]3CCCN3C(=O)[C@H](CC(N)=O)NC(=O)[C@@H]3CCC(=O)N3)ccc12` [JAK 5, Glp-Asn-Pro-AMC] ([pGlu]-Asn-Pro-{AMC}), the “Effect on central effects of TRH in vivo” value in the assay with Male Wistar rats [3] is listed as “amplify”. Moreover, the “Affinity compared to TRH for [3H]-3MeHis-TRH-labelled receptors in rat cortical membranes” value in assay [1] is on record as “relatively low affinity”. For the same compound, the Ki in assay [2] turned out to be 970 nM.

For `Cc1cc(=O)oc2cc(NC(=O)[C@@H](Cc3c[nH]c4ccccc34)NC(=O)[C@@H](Cc3ccc(O)cc3)NC(=O)[C@@H]3CCCN3C(=O)[C@H](CC(N)=O)NC(=O)[C@@H]3CCC(=O)N3)ccc12` [JAK 2D, Glp-Asn-Pro-DTyr-DTrpAMC] ([pGlu]NP[dY][dW]-{AMC}), the Ki in assay [4] (setting [8]) was found to be 3.7 nM; in assay [2], 100 nM. In assay [4], the “Affinity for [3H]-3MeHis-TRH-labelled receptors compared with 3MeHis-TRH” value was “greater affinity”.

As to `NC(=O)[C@@H]1CCCN1C(=O)[C@H](Cc1c[nH]cn1)NC(=O)[C@@H]1CCC(=O)N1` [TRH, pyroglutamyl-histidyl-prolineamide, reference compound], the Ki in assay [4] (setting [9]) is 22 nM. Further, in the assay with Male Wistar rats [5] (TRH 5-50 mg/kg), the “Effect on rat activity” value is given as “dose-dependent increase”. In the assay on Male Wistar rats [6], the “Sleep time” value came to 54.5 ± 4.3 min and the “Effect on barbiturate-induced sleep time” value is on record as “significantly (p<0.05, Student's t-test) reduce”. In the assay on Male Wistar rats [7] (TRH i.p.), the “Effect on WDS” value was “concentration-dependent increase”, the “Persistence of effects on WDS” value is reported as “approximately 20 min” and the “Time of maximum numbers of WDS post administration” value was determined as 5 min.

Regarding `NC(=O)[C@@H](Cc1c[nH]c2ccccc12)NC(=O)[C@@H](Cc1ccc(O)cc1)NC(=O)[C@@H]1CCCN1C(=O)[C@H](Cc1c[nH]cn1)NC(=O)[C@@H]1CCC(=O)N1` [JAK 7D, Glp-His-Pro-D-Tyr-D-TrpNH2] ([pGlu]HP[dY][dW]-NH2), the Ki turned out to be 1000 nM in assay [4] (setting [8]) and 19600 nM in assay [2].

In the case of `Cn1cncc1C[C@H](NC(=O)[C@@H]1CCC(=O)N1)C(=O)N1CCC[C@H]1C(N)=O` [3-MeHis-TRH, reference compound], the inhibitory constant (Ki) in assay [4] (in DMSO, read-out: Ki, inhibition of [3H]-3MeHis-TRH binding) came to 74 nM; in assay [4] (in saline, read-out: Ki, inhibition of [3H]-3MeHis-TRH binding) it was 1.9 nM.

As to `NC(=O)C[C@H](NC(=O)[C@@H]1CCC(=O)N1)C(=O)N1CCC[C@H]1C(=O)N[C@H](Cc1ccc(O)cc1)C(=O)N[C@H](Cc1c[nH]c2ccccc12)C(N)=O` [JAK 4D, Glp-Asn-Pro-D-Tyr-D-TrpNH2] ([pGlu]NP[dY][dW]-NH2), the inhibition constant (Ki) in assay [4] (setting [8]) was 5.5 nM; in assay [2], 110 nM. In assay [4], the “Affinity for [3H]-3MeHis-TRH-labelled receptors compared with 3MeHis-TRH” value was “greater affinity”. Further, the “Responses on co-administration with 10 mg/kg TRH” value in the assay with Male Wistar rats [5] (0.1 mg/kg) is “equivalent to those achieved by 20 and 50 mg/kg TRH”. Moreover, the “Effect of pre-treatment on stimulatory effect of 10 mg/kg TRH” value in the assay with Male Wistar rats [5] (0.1 mg/kg, 15-20 min after TRH) is listed as “enhanced”. In the assay with Male Wistar rats [5] (1 mg/kg JAK4-D), the “Activity response compared with TRH” value is given as “comparable to that produced by TRH 5 mg/kg”. In addition, the “Effect of pre-treatment on responses to 10 mg/kg TRH” value with Male Wistar rats [5] (1 mg/kg, entire observation period) is “enhanced and prolonged”. In the assay with Male Wistar rats [5] (0.1-5 mg/kg i.p.), the “Effect on spontaneous rat activity scores vs vehicle” value is listed as “transient increase”. In addition, in the assay on Male Wistar rats [6], the “Sleep time” value stood at 54.1 ± 2.4 min. Further, the “Effect of pre-treatment on peak WDS response to 10 mg/kg TRH” value with Male Wistar rats [7] (1 mg/kg) was “enhanced”. In the assay with Male Wistar rats [7] (1 mg/kg), the “Occurrence of WDS” value was “comparable with the response produced by 5 mg/kg TRH”.

As to `NC(=O)C[C@H](NC(=O)[C@@H]1CCC(=O)N1)C(=O)N1CCC[C@H]1C(=O)N[C@@H](Cc1ccc(O)cc1)C(=O)N[C@@H](Cc1c[nH]c2ccccc12)C(=O)N[C@@H](Cc1c[nH]c2ccccc12)C(N)=O` [JAK 3, Glp-Asn-Pro-LTyr-LTrp-LTrpNH2] ([pGlu]NPYWW-NH2), in assay [2], the Ki is 730 nM.

As to [pGlu]NP[dY][dW]-NH2, the “Effect on barbiturate-induced sleep time” value in the assay on Male Wistar rats [6] is “significantly (p<0.05, Student's t-test) reduce”.

On to “[^3H][3-Me-His^2]TRH [reference compound]”, for which the Kd (in general, the free concentration of one partner at which half of the binding sites on the other are occupied at equilibrium, for simple one-to-one binding) in assay [1] (single population of high affinity sites (Sharif 1989, Kelly et al., 2002), read-out: Kd on rat brain cortical membranes) is around 5 nM.

With `Cc1cc(=O)oc2cc(NC(=O)[C@H](Cc3c[nH]c4ccccc34)NC(=O)[C@H](Cc3c[nH]c4ccccc34)NC(=O)[C@H](Cc3ccc(O)cc3)NC(=O)[C@@H]3CCCN3C(=O)[C@H](CC(N)=O)NC(=O)[C@@H]3CCC(=O)N3)ccc12` [JAK 1, Glp-Asn-Pro-LTyr-LTrp-LTrp-AMC] ([pGlu]NPYWW-{AMC}), the inhibition constant (Ki) in assay [4] (setting [9]) was above 100000 nM; in assay [2], 1 nM. The “Affinity for [3H]-3MeHis-TRH-labelled receptors in rat brain cortex” value in assay [4] is given as “low affinity”.

On to `Cc1cc(=O)oc2cc(NC(=O)[C@@H](Cc3c[nH]c4ccccc34)NC(=O)[C@@H](Cc3c[nH]c4ccccc34)NC(=O)[C@@H](Cc3ccc(O)cc3)NC(=O)[C@@H]3CCCN3C(=O)[C@H](CC(N)=O)NC(=O)[C@@H]3CCC(=O)N3)ccc12` [JAK 1D, Glp-Asn-Pro-DTyr-DTrp-DTrpAMC] ([pGlu]NP[dY][dW][dW]-{AMC}), for which the Ki was 60 nM in assay [4] (setting [8]) and 30 nM in assay [2].

Regarding `NC(=O)C[C@H](NC(=O)[C@@H]1CCC(=O)N1)C(=O)N1CCC[C@H]1C(=O)N[C@@H](Cc1ccc(O)cc1)C(=O)N[C@@H](Cc1c[nH]c2ccccc12)C(N)=O` [JAK 4, Glp-Asn-Pro-LTyr-LTrp-NH2] ([pGlu]NPYW-NH2), the inhibitory constant (Ki) in assay [4] (setting [9]) stood at 120 nM.

As to `Cc1cc(=O)oc2cc(NC(=O)[C@H](Cc3c[nH]c4ccccc34)NC(=O)[C@H](Cc3ccc(O)cc3)NC(=O)[C@@H]3CCCN3C(=O)[C@H](CC(N)=O)NC(=O)[C@@H]3CCC(=O)N3)ccc12` [JAK 2, Glp-Asn-Pro-LTyr-LTrp-AMC] ([pGlu]NPYW-{AMC}), the Ki in assay [4] (setting [9]) is around 40000 nM. The “Affinity for [3H]-3MeHis-TRH-labelled receptors in rat brain cortex” value in assay [4] is listed as “low affinity”.
